Source: publication PMC6973020, “Quinoline‐Conjugated Ruthenacarboranes: Toward Hybrid Drugs with a Dual Mode of Action” (Chemmedchem, 2019)

How the values were obtained:
LN229 human glioblastoma = experiment: MTT cell viability assay, LN229; assay type: cell-based; details: 72 h
Description: (§1) Thus, care must be taken when comparing their biological activities with those of our previous studies, even with the same cell line, because the covalent vs. non‐covalent combination of drugs might imply different mechanisms of action in the cell.44 Here, we studied the in vitro activity of ruthenacarborane 3, i. e. free acid, and its 8‐hydroxyquinolyl (4) and 4‐{(7‐chloroquinolin‐4‐yl)oxy}butanol‐1‐yl (5) esters, against a panel of cancer cell lines (B16 mouse melanoma, A375 human skin melanoma, MCF‐7 human breast adenocarcinoma, LN229 human glioblastoma, U251 human glioma). Human fibroblast cell line MRC‐5, murine microglial cell line BV‐2 as well as peritoneal exudate cells (Mph), were chosen as models for non‐malignant cells. […] On the other side, we wanted to assess the reproducibility of the viability data, under either controlled (with BSA) or uncontrolled (without BSA) conditions, in two sets of independent assays. […] Cells were exposed to 3–5 for 72 h, after which cell viability was determined via 3‐(4,5‐dimethylthiazol‐2‐yl)‐2,5‐diphenyltetrazolium bromide (MTT) and crystal violet (CV) assays, in parallel (Table 2). Cisplatin was also tested as reference.
(§2) Preparation of drug solutions. […] Stock solution of cisplatin was prepared in DMF (10 mM) immediately before use. A stock solution of BSA in PBS was prepared at 1.28 mM concentration, and stored at 4 °C in the dark. […] Alternatively, 3 or 4 (DMSO stock solution) were added to the BSA solution in PBS, always with a 10 : 1 molar ratio of BSA to ruthenacarborane. The BSA−ruthenacarborane solutions were incubated 0.5–1 h at room temperature, then diluted with cell culture medium to the desired final concentrations. Final concentrations of 3 and 4 were the same as for the BSA‐free formulation. Final DMSO was 0.02–0.5 vol %.
(§3) Colorimetric assays for cellular viability. […] For counting the number of attached (viable) cells, cells were fixed with 4 % (w/v) paraformaldehyde for 10 min at room temperature, and subsequently stained for 15 min with […] crystal violet (CV) solution. Cells were then washed with tap water, dried in air, and the CV dye was dissolved in 33 % (w/v) acetic acid solution. For the detection of mitochondrial respiration, cells were cultivated in MTT staining solution (0.5 mg mL^−1) for approximately 1 h. The dye was then discarded, and the formed formazan (purple) was dissolved in DMSO. The absorbance was measured with an automated microplate reader at λmax 540 nm, with the reference λmax 670 nm. Untreated cells or cells treated only with BSA (control) were also measured, as reference for BSA‐free and BSA‐containing drug formulations, respectively. […] Cell viability is expressed as percentage (%) relative to control (untreated cultures).58 Experiments were run in three independent replicates. […]

LN229 cells = experiment: Wound healing assay, LN229; assay type: cell-based, human; details: LN229, IC50 dose, 72 h
B16 mouse melanoma = experiment: MTT cell viability assay, B16; assay type: cell-based; details: 72 h
Description: as §1, §2, §3

A375 human skin melanoma = experiment: Crystal violet (CV) cell viability assay, A375; assay type: cell-based; details: 72 h
Description: as §1, §2, §3

[1] = tested on: Human fibroblast cell line MRC‐5; experiment: Crystal violet (CV) cell viability assay, MRC‐5; assay type: cell-based; details: 72 h
Description: as §1
Preparation of drug solutions. […] Stock solution of cisplatin was prepared in DMF (10 mM) immediately before use. A stock solution of BSA in PBS was prepared at 1.28 mM concentration, and stored at 4 °C in the dark. […] Alternatively, 3 or 4 (DMSO stock solution) were added to the BSA solution in PBS, always with a 10 : 1 molar ratio of BSA to ruthenacarborane. […]
Colorimetric assays for cellular viability. […] The absorbance was measured with an automated microplate reader at λmax 540 nm, with the reference λmax 670 nm. Untreated cells or cells treated only with BSA (control) were also measured, as reference for BSA‐free and BSA‐containing drug formulations, respectively. […] Cell viability is expressed as percentage (%) relative to control (untreated cultures).58 Experiments were run in three independent replicates. […]

Q: How did the IC50 (LN229 human glioblastoma) turn out when “closo ‐[3‐(η^6‐p‐Cymene)‐1‐(quinolin‐8‐yl‐acetate)‐3,1,2‐RuC2B9H10] [Compound 4]” was run?
A: The IC50 was 42.4 ± 3.9 µM.

Q: What about the “cell motility (wound healing assay, in words)” value (LN229 cells) of the same substance?
A: Its value is “inhibited motility”.

Q: And the IC50 (B16 mouse melanoma)?
A: The IC50 was 20.4 ± 2.1 µM.

Q: And the IC50 (A375 human skin melanoma)?
A: The IC50 was 14.9 ± 2.1 µM.

Q: What about the IC50 [1] of the same substance?
A: The IC50 was 4.9 ± 0.1 µM.

Q: How did the IC50 (LN229 human glioblastoma) turn out when “closo‐ [Compound 3, closo‐ [3‐(η^6‐p‐Cymene)‐1‐(CH2COOH)‐3,1,2‐RuC2B9H10]]” was run?
A: Its IC50 is 80.1 ± 4 µM.

Q: What about the “cell motility (wound healing assay, in words)” value (LN229 cells) of the same substance?
A: The value was “inhibited motility”.

Q: What about the IC50 (B16 mouse melanoma) of the same substance?
A: The IC50 was 19.4 ± 0.9 µM.

Q: And the IC50 (A375 human skin melanoma)?
A: Its IC50 is 18.7 ± 1.8 µM.

Q: What about the IC50 [1] of the same substance?
A: Its IC50 is 58.5 ± 0.3 µM.
